A short description of assay [1]: Qualitative/selective recognition of metal ions by the probe, Cd2+ (FIG. 6). The settings on record: 100uL of 1×10^-2mol/L Cd2+; probe solution 3mL; EX=350nm, EM=475nm.
The nature of assay [2]: Fluorescence titration of the Schiff base probe with Zn2+ (Examples 2-7, FIG. 4). The settings on record: for fluorescence intensity: probe 2×10^-5mol/L in methanol, 3mL, EX=350nm, EM=475nm.
A short description of assay [3]: Quantitative analysis of Zn2+: linear relation of fluorescence intensity and Zn2+ concentration, detection limit (Examples 8-11, FIG. 5).
A short description of assay [4]: Anti-interference of the probe for Zn2+ in the presence of other metal ions (FIG. 7). The note with it: for fluorescence intensity: EX=350nm, EM=475nm.
Assay [5] is described as follows: Qualitative/selective recognition of metal ions by the probe, Zn2+ (FIG. 6).

In the case of `CC(C)(C)c1cc(C=NNc2ncccc2Cl)c(O)c(-c2cc(C(C)(C)C)cc(C=NNc3ncccc3Cl)c2O)c1` [荧光探针, 5,5'-二叔丁基-2,2'-二羟基联苯-3,3'-二甲醛缩3-氯-2-肼基吡啶席夫碱], the fluorescence intensity turned out to be 300.2 in assay [1]; 83.56 in assay [2] (1μL of 1×10^-2mol/L Zn2+ added); 468.2 in assay [2] (6μL of 1×10^-2mol/L Zn2+ added); 852.4 in assay [2] (12μL of 1×10^-2mol/L Zn2+ added); 952.4 in assay [2] (18μL of 1×10^-2mol/L Zn2+ added); 28.02 in assay [2] (probe blank solution without Zn2+, slits 5nm). Also, the fluorescence intensity in assay [3] (Zn2+ 30μM in the system, EX=350nm, EM=475nm) worked out at 119.8; in assay [3] (Zn2+ 50μM in the system, EX=350nm, EM=475nm), 440.2; in assay [3] (Zn2+ 70μM in the system, EX=350nm, EM=475nm) it was 765.9; in assay [4] (100uL Zn2+ plus 100uL Ba2+ (1×10^-2mol/L each)), 694.5; in assay [4] (100uL Zn2+ plus equal volume of Ca2+ (1×10^-2mol/L each)) it was 914.6; in assay [5] (100uL of 1×10^-2mol/L Zn2+, probe solution 3mL, EX=350nm, EM=475nm), 923.5. The “visible change under UV lamp” value in assay [2] (365nm, after recognition of Zn2+) is “在紫外灯365nm下即可看到明显变化”. Besides, the “fluorescence intensity enhancement relative to blank” value in assay [2] (after recognition of Zn2+ (18μL of 1×10^-2mol/L Zn2+) vs probe blank) worked out at 34 fold. In addition, in assay [3] (Zn2+, calculated), the detection limit was 6.05e-08 mol/L. Besides, the “linear range of fluorescence intensity vs Zn2+ concentration” value in assay [3] (good linear relation, EX=350nm, EM=475nm) was 30 to 70 µM. Also, the “interference by other metal ions in recognition of Zn2+” value in assay [4] (other metal ions coexisting with Zn2+) was “可避免其它金属离子共存时产生的干扰,可实现对Zn2+的专一性识别”. Moreover, the “selectivity of recognition of Zn2+” value in assay [5] (vs 18 other metal ions, 100uL of 1×10^-2mol/L each) is “较好的选择性”.

The record behind these values is patent CN110194737A, “一种联水杨醛缩3-氯-2-肼基吡啶席夫碱合成方法与应用” (Harbin University of Science and Technology, priority 2019, dated 2019).
